Assay results as given in patent US9409952B2, “Peptide-compound cyclization method” (Chugai Seiyaku Kabushiki Kaisha, priority 2011, dated 2016).
Like-named read-outs stand apart in the source and are kept apart here. Positions of bridges follow the written chain, without caps; N, C: chain ends. Non-standard residues stand in square brackets, D forms with d. Residues, ends and D or L forms follow the SMILES beside them. *: point of attachment. NMeF = CN[C@@H](Cc1ccccc1)C(=O)O; NMeI = CC[C@H](C)[C@H](NC)C(=O)O; NMeL = CN[C@@H](CC(C)C)C(=O)O; NMeV = CN[C@H](C(=O)O)C(C)C; NMeA = CN[C@@H](C)C(=O)O; Piperidide = C1CCN(*)CC1; Sar = CNCC(=O)O

Assays:
[1] = PAMPA (parallel artificial membrane permeability assay); format: in vitro ADME; settings: for Papp at 18 hours, 50 µM: PAMPA
Procedure, shortened: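 Artificial membrane was 10% (w/v) egg lecithin plus 0.5% (w/v) cholesterol in dodecane on a PVDF filter. A 10 mM DMSO stock was added at 0.5% (v/v) to donor buffer (50 mM MOPSO, pH 6.5, 5.0% glycocholic acid). After 18 h at 37 °C, LC/MS or LC/UV gave donor and acceptor levels for Pe.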

[2] = Metabolic stability in human hepatic microsome; format: in vitro ADME; settings: microsomes
[3] = pH 7.4, human hepatic microsome, NADPH(+), read-out: CL NADPH(+)
[4] = membrane permeation rate (Pe), 50 mM MOPSO buffer pH 6.5 with 5.0% glycocholic acid, 37° C., 18 hours, read-out: iPAMPA Pe

Structure (SMILES) | iPAMPA Pe ([1]; membrane permeation rate (Pe), 50 mM MOPSO buffer pH 6.5 with 5.0% glycocholic acid, 37° C., 18 hours) | microsomal CLint at 1 uM [2, 3] | Papp at 18 hours, 50 µM ([1]; pH 6.5) | microsomal CLint at 1 uM ([2]; human, pH 7.4, CL NADPH(+)) | Papp at 18 hours, 50 µM [1, 4]
CC[C@H](C)[C@@H]1NC(=O)[C@H](CC(C)C)N(C)C(=O)CN(C)C(=O)[C@H]([C@@H](C)O)NC(=O)[C@H](C)N(C)C(=O)C[C@@H](C(=O)N[C@@H](C)C(=O)N2CCCCC2)NC(=O)[C@H](CC(C)C)N(C)C(=O)[C@H](Cc2ccccc2)N(C)C(=O)[C@H](CC(C)C)N(C)C1=O [DP-664] ([NMeA]T[Sar][NMeL]I[NMeL][NMeF][NMeL]DA-Piperidide; lactam N-9) | 7.0E−05 | 304 µL/min/mg |  |  | 
CC[C@H](C)[C@@H]1NC(=O)[C@H](C)NC(=O)C[C@@H](C(=O)N(C)[C@@H](C)C(=O)N[C@H](C(=O)N2CCC[C@H]2C(=O)N[C@H](C(=O)N[C@@H](C)C(=O)N2CCCCC2)C(C)C)[C@@H](C)CC)NC(=O)[C@@H]2CCCN2C(=O)[C@H](CC(C)C)NC(=O)[C@H](Cc2ccccc2)N(C)C(=O)[C@H]([C@@H](C)O)NC(=O)[C@H](Cc2ccccc2)N(C)C(=O)[C@H](C)N(C)C1=O [DP-665] (AI[NMeA][NMeF]T[NMeF]LPD[NMeA]IPVA-Piperidide; lactam N-9) |  |  | 4 ×10⁻⁶ cm/s | 77 µL/min/mg | 
CC[C@H](C)[C@H](NC(=O)[C@H](CC(C)C)NC(=O)[C@H](Cc1ccccc1)NC(=O)[C@@H]1CC(=O)N[C@@H](C)C(=O)N[C@@H]([C@@H](C)CC)C(=O)N(C)[C@@H](C)C(=O)N(C)[C@@H](Cc2ccccc2)C(=O)N[C@@H]([C@@H](C)O)C(=O)N(C)[C@@H](Cc2ccccc2)C(=O)N[C@@H](CC(C)C)C(=O)N2CCC[C@H]2C(=O)N1)C(=O)N[C@@H](C)C(=O)N1CCCCC1 [DP-666] (AI[NMeA][NMeF]T[NMeF]LPDFLIA-Piperidide; lactam N-9) |  |  | 3 ×10⁻⁶ cm/s | 74 µL/min/mg | 
CC[C@H](C)[C@@H]1NC(=O)[C@H](C)NC(=O)C[C@@H](C(=O)N(C)[C@@H](CC(C)C)C(=O)N(C)[C@@H](C)C(=O)N(C)[C@@H](Cc2ccccc2)C(=O)N[C@@H](C)C(=O)N2CCCCC2)NC(=O)[C@@H]2CCCN2C(=O)[C@H](CC(C)C)NC(=O)[C@H](Cc2ccccc2)N(C)C(=O)[C@H]([C@@H](C)O)NC(=O)[C@H](Cc2ccccc2)N(C)C(=O)[C@H](C)N(C)C1=O [DP-667] (AI[NMeA][NMeF]T[NMeF]LPD[NMeL][NMeA][NMeF]A-Piperidide; lactam N-9) |  | 39 µL/min/mg |  |  | 19 ×10⁻⁶ cm/s
CC[C@H](C)[C@H](NC(=O)[C@H](C)N(C)C(=O)[C@@H]1CC(=O)N[C@@H](C)C(=O)N[C@@H]([C@@H](C)CC)C(=O)N(C)[C@@H](C)C(=O)N(C)[C@@H](Cc2ccccc2)C(=O)N[C@@H]([C@@H](C)O)C(=O)N(C)[C@@H](Cc2ccccc2)C(=O)N[C@@H](CC(C)C)C(=O)N2CCC[C@H]2C(=O)N1)C(=O)N1CCCCC1 [DP-668] (AI[NMeA][NMeF]T[NMeF]LPD[NMeA]I-Piperidide; lactam N-9) |  |  | 26 ×10⁻⁶ cm/s | 142 µL/min/mg | 
CC[C@H](C)[C@H](NC(=O)[C@@H]1CC(=O)N[C@@H](C)C(=O)N[C@@H]([C@@H](C)CC)C(=O)N(C)[C@@H](C)C(=O)N(C)[C@@H](Cc2ccccc2)C(=O)N[C@@H]([C@@H](C)O)C(=O)N(C)[C@@H](Cc2ccccc2)C(=O)N[C@@H](CC(C)C)C(=O)N2CCC[C@H]2C(=O)N1)C(=O)N1CCCCC1 [DP-669] (AI[NMeA][NMeF]T[NMeF]LPDI-Piperidide; lactam N-9) |  |  | 29 ×10⁻⁶ cm/s | 54 µL/min/mg | 
CC[C@H](C)[C@H]1C(=O)N(C)[C@@H](CC(C)C)C(=O)N[C@@H](Cc2ccccc2)C(=O)N[C@@H]([C@@H](C)O)C(=O)N[C@@H](CC(C)C)C(=O)N(C)[C@@H](Cc2ccccc2)C(=O)N(C)[C@@H](C(C)C)C(=O)N[C@H](C(=O)N(C)CC(=O)N(C)[C@@H](C)C(=O)N(C)[C@@H](CC(C)C)C(=O)N[C@@H](C)C(=O)N2CCCCC2)CC(=O)N[C@H](C)C(=O)N[C@@H](C)C(=O)N1C [DP-670] ([dA]A[NMeI][NMeL]FTL[NMeF][NMeV]D[Sar][NMeA][NMeL]A-Piperidide; lactam N-10) |  | 22 µL/min/mg |  |  | 12 ×10⁻⁶ cm/s
CC[C@H](C)[C@H]1C(=O)N(C)[C@@H](CC(C)C)C(=O)N[C@@H](Cc2ccccc2)C(=O)N[C@@H]([C@@H](C)O)C(=O)N[C@@H](CC(C)C)C(=O)N(C)[C@@H](Cc2ccccc2)C(=O)N(C)[C@@H](C(C)C)C(=O)N[C@H](C(=O)N2CCC[C@H]2C(=O)N[C@H](C(=O)N[C@@H](C)C(=O)N2CCCCC2)C(C)C)CC(=O)N[C@H](C)C(=O)N[C@@H](C)C(=O)N1C [DP-671] ([dA]A[NMeI][NMeL]FTL[NMeF][NMeV]DPVA-Piperidide; lactam N-10) |  | 39 µL/min/mg |  |  | 16 ×10⁻⁶ cm/s
CC[C@H](C)[C@H]1C(=O)N(C)[C@@H](CC(C)C)C(=O)N[C@@H](Cc2ccccc2)C(=O)N[C@@H]([C@@H](C)O)C(=O)N[C@@H](CC(C)C)C(=O)N(C)[C@@H](Cc2ccccc2)C(=O)N(C)[C@@H](C(C)C)C(=O)N[C@H](C(=O)N(C)CC(=O)N[C@@H](C)C(=O)N2CCCCC2)CC(=O)N[C@H](C)C(=O)N[C@@H](C)C(=O)N1C [DP-672] ([dA]A[NMeI][NMeL]FTL[NMeF][NMeV]D[Sar]A-Piperidide; lactam N-10) |  | 72 µL/min/mg |  |  | 13 ×10⁻⁶ cm/s
